Data on 25 molecules can be found in PMC12257544, “Fluorescent Isostere (Fluostere) of the Carboxylate: Design of hDHODH Fluorescent Inhibitors as Proof of Concept” (Journal of Medicinal Chemistry, 2025).

The structures appear in SMILES notation. Several values for one entry are separate records, joined by “and”; a condition that tells them apart may be missing. Identical values can stand only once.

Data set [1] can be described thus: Photophysical characterization (absorption, emission, QY, lifetime). In kind it is physicochemical. To be noted: for λabs / λem / Lifetime / QY (luminescence quantum yield) / Stokes shift: in ACN. The protocol: UV–Vis absorption spectra were recorded on a Cary60 spectrometer. Photoemission spectra, luminescence lifetimes, and quantum yields were acquired with a HORIBA Jobin Yvon IBH Fluorolog-TCSPC spectrofluorometer equipped with a Quanta-φ integrating sphere. […] Emission-decay data were collected in 2048 channels to 10000 counts in the peak channel. IRF was measures using colloidal silica suspension in H2O to scatter light. Data were analyzed with the software DAS6 (TCSPC decay-analysis software) using a nonlinear least-squares method to fit of the decay to a sum of exponentials. The value of χ^2, residuals and the autocorrelation function (Durbin-Watson parameter) were used to determine the quality of the fit. For measurements in the presence of hDHODH, 11a was incubated, at 1 μM concentration in TRIS Buffer 0.1 mM (pH 8) with 0.1% DMSO, alone or with different concentrations of recombinant protein ranging from 31.5 to 504 nM concentration. After 5 min incubation UV–Vis absorption spectra were recorded on a Cary60 spectrophotometer and photoemission spectra were acquired with a HORIBA Jobin Yvon IBH Fluorolog-TCSPC spectrofluorometer with excitation λ of 366 nm and maximum of emission at 500 nm; a.u. data were analyzed with GraphPad Prism using One Site – Specific Binding equation.

On the set-up of data set [2]: method as in doi:10.1021/cr00002a004. To be noted: substituent in position 3; cited from earlier work.
Another data set addresses hDHODH enzyme GST-tagged (Homo sapiens, UniProt Q02127). Put plainly: hDHODH inhibition assay (DCIP reduction).

Sequence of hDHODH enzyme GST-tagged (Q02127 whole entry): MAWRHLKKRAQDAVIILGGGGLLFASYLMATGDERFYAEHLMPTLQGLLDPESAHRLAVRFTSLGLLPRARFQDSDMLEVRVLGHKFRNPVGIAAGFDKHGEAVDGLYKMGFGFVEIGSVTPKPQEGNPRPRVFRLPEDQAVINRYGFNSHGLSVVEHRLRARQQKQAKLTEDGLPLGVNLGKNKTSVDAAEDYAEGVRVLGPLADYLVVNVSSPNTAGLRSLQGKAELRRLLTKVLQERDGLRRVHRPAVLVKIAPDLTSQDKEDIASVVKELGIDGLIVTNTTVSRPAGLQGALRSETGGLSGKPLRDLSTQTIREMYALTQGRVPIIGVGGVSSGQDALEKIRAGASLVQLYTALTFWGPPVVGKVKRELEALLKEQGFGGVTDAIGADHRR
Protocol for hDHODH enzyme GST-tagged: The enzyme (around 60 nM) was preincubated for 5 min at 37 °C in Tris-buffer solution (pH 8.0) with coenzyme Q10 (100 μM), tested compounds at different concentrations (final DMSO concentration 0.1% v/v), and DCIP (50 μM). The reaction was initiated by addition of DHO (500 μM) and the reduction was monitored at λ = 650 nm. […] Values are means ± SE of three independent experiments.

In data set [1], `COc1cc2ccccn2n1` [Compound 1a, 2-Methoxypyrazolo[1,5-a]pyridine] displayed a λabs of 305 nm and a λem of 400 nm.
In the case of `Cn1c(=O)cc2ccccn21` [Compound 1b, 1-Methylpyrazolo[1,5-a]pyridin-2(1H)-one], in data set [1], the λabs is reported as 335 nm and the λem was found to be 465 nm.
Turning to `CCOC(=O)c1c(OC)nn2ccccc12` [Compound 2a, Ethyl 2-methoxypyrazolo[1,5-a]pyridine-3-carboxylate], in data set [1], the Lifetime is 9 ns, the “QY (luminescence quantum yield)” value is given as 0.45, the Stokes shift turned out to be 5942 cm^–1 and the λabs came to 310 nm. Further, the λem in data set [1] amounted to 380 nm.
The corresponding values for `CCOC(=O)c1c(=O)n(C)n2ccccc12` [Compound 2b, Ethyl 1-methyl-2-oxo-1,2-dihydropyrazolo[1,5-a]pyridine-3-carboxylate] are 11 ns, 0.26, 6514 cm^–1, 345 nm and 445 nm.
Regarding `CCOC(=O)c1c(OCc2ccccc2)nn2ccccc12` [Compound 2c, Ethyl 2-(Benzyloxy) Pyrazolo[1,5-a]pyridine-3-carboxylate], in data set [1], the Lifetime was 9 ns, the “QY (luminescence quantum yield)” value is reported as 0.43, the Stokes shift is recorded as 5942 cm^–1 and the λabs came out at 310 nm. This molecule also showed a λem in data set [1] of 380 nm.
For `CCOC(=O)c1c(=O)n(Cc2ccccc2)n2ccccc12` [Compound 2d, Ethyl 1-benzyl-2-oxo-1,2-dihydropyrazolo[1,5-a]pyridine-3-carboxylate] the same measures were 12 ns, 0.30, 6414 cm^–1, 348 nm and 448 nm.
With `O=[N+]([O-])c1c(O)nn2ccccc12` [Compound 3, 3-Nitropyrazolo[1,5-a]pyridin-2-ol], in data set [1], the λabs worked out at 361 nm and the λem result is on record as “n.e. ^a”. In data set [2], the “σ p (Hammett substituent constant)” value is 0.78.
For the molecule `COc1nn2ccccc2c1NC(C)=O` [Compound 3a, N-(2-methoxypyrazolo[1,5-a]pyridine-3-yl)acetamide], in data set [1], the “QY (luminescence quantum yield)” value is reported as less than 0.01, the Stokes shift was found to be 10169 cm^–1, the λabs came out at 312 nm and the λem stood at 457 nm. For the same molecule, the “σ p (Hammett substituent constant)” value in data set [2] is 0.00.
With `COc1nn2ccccc2c1NS(C)(=O)=O` [Compound 3b, N-(2-methoxypyrazolo[1,5-a]pyridin-3-yl)methanesulfonamide], in data set [1], the Lifetime came out at 2 ns, the “QY (luminescence quantum yield)” value is less than 0.01, the Stokes shift is reported as 10379 cm^–1 and the λabs is given as 315 nm. Further, in data set [1], the λem amounted to 468 nm. Also, the “σ p (Hammett substituent constant)” value in data set [2] is listed as 0.03.
On to `COc1nn2ccccc2c1C=C(C#N)C#N` [Compound 4a, 2-((2-Methoxypyrazolo[1,5-a]pyridin-3-yl)methylene)], for which, in data set [1], the λabs stood at 393 nm, the λem entry was “n.e” and the “emission in the solid state” value is “yellow light”.
On to `COC(=O)/C(C#N)=C/c1c(OC)nn2ccccc12` [Compound 4b, Methyl (e)-2-cyano-3-(2-methoxypyrazolo[1,5-a]pyridin-3-yl)acrylate], for which, in data set [1], the λabs is 395 nm, the λem result was “n.e” and the “emission in the solid state” value is listed as “yellow light”.
`COc1nn2ccccc2c1/C=C/c1ccccc1` [Compound 5a, (E)-2-methoxy-3-styrylpyrazolo[1,5-a]pyridine]: in data set [1], the Lifetime is reported as 3.5 ns, the “QY (luminescence quantum yield)” value is less than 0.01, the Stokes shift came out at 9851 cm^–1 and the λabs is given as 335 nm. In addition, the λem in data set [1] turned out to be 500 nm.
For `COc1nn2ccccc2c1/C=C/c1ccc(SC)cc1` [Compound 5b, (E)-2-methoxy-3-(4-(methylthio)styryl)pyrazolo[1,5-a]pyridine] the same measures were 3.5 ns, less than 0.01, 8964 cm^–1, 350 nm and 510 nm.
Consider `COc1nn2ccccc2c1/C=C/c1ccc(S(C)(=O)=O)cc1` [Compound 5c, (E)-2-methoxy-3-(4-(methylsulfonyl)styryl)pyrazolo[1,5-a]pyridine], for which, in data set [1], the Lifetime was determined as 3.5 ns, the “QY (luminescence quantum yield)” value was less than 0.01, the Stokes shift came to 5750 cm^–1 and the λabs is 370 nm. The λem in data set [1] was found to be 470 nm.
The corresponding values for `COc1nn2ccccc2c1/C=C/c1ccc(C#N)cc1` [Compound 5d, (E)-4-(2-(2-methoxypyrazolo[1,5-a]pyridin-3-yl)vinyl)benzonitrile] are 3.5 ns, less than 0.01, 5178 cm^–1, 378 nm and 470 nm.
For `COc1nn2ccccc2c1/C=C/c1ccc([N+](=O)[O-])cc1` [Compound 5e, (E)-2-methoxy-3-(4-nitrostyryl) Pyrazolo[1,5-a]pyridine] the same measures were less than 0.1 ns, less than 0.01, 8368 cm^–1, 426 nm and 662 nm.
For `COc1nn2ccccc2c1-c1ccc2ccccc2c1` [Compound 6, 2-Methoxy-3-(naphthalen-2-yl)pyrazolo[1,5-a]pyridine] the same measures were 4.3 ns, 0.13, 7480 cm^–1, 345 nm and 465 nm.
`COc1nn2ccccc2c1-c1ccc2ccccc2n1` [Compound 7a, 2-(2-Methoxypyrazolo[1,5-a]pyridin-3-yl)quinoline]: in data set [1], the Lifetime stood at 2.8 ns, the “QY (luminescence quantum yield)” value is on record as 0.52, the Stokes shift was 3330 cm^–1 and the λabs was 370 nm. In addition, the λem in data set [1] is reported as 422 nm.
In the case of `COc1nn2ccccc2c1-c1ccc2cccnc2c1` [Compound 7b, 7-(2-Methoxypyrazolo[1,5-a]pyridin-3-yl)quinoline], in data set [1], the Lifetime came to 5.5 ns, the “QY (luminescence quantum yield)” value is 0.42, the Stokes shift was 5868 cm^–1 and the λabs was determined as 356 nm. Besides, the λem in data set [1] was 450 nm.
With `COc1nn2ccccc2c1-c1ccc2ncccc2c1` [Compound 7c, 6-(2-Methoxypyrazolo[1,5-a]pyridin-3-yl)quinoline], in data set [1], the Lifetime was determined as 5.3 ns, the “QY (luminescence quantum yield)” value is 0.24, the Stokes shift came out at 6832 cm^–1 and the λabs is 350 nm. Also, the λem in data set [1] is recorded as 460 nm.
As for `CCOC(=O)c1c(O)nn2c(N(C)C)cccc12` [Compound 8a, Ethyl 7-(Dimethylamino)-2-hydroxypyrazolo[1,5-a]pyridine-3-carboxylate], in data set [1], the Lifetime was found to be 3.7 ns, the “QY (luminescence quantum yield)” value amounted to 0.06, the Stokes shift came to 5255 cm^–1 and the λabs is 338 nm. In addition, in data set [1], the λem was found to be 411 nm.
Take `COc1nn2c(Cl)cccc2c1-c1ccc2ncccc2c1` [Compound 9a, 6-(7-Chloro-2-methoxypyrazolo[1,5-a]pyridin-3-yl)quinoline]: in data set [1], the Lifetime came out at 5.1 ns, the “QY (luminescence quantum yield)” value was less than 0.01, the Stokes shift is recorded as 6832 cm^–1 and the λabs is reported as 350 nm.
Consider `COc1nn2c(N(C)C)cccc2c1-c1ccc2ncccc2c1` [Compound 9b, 2-Methoxy-N,N-dimethyl-3-(quinolin-6-yl)pyrazolo[1,5-a]pyridin-7-amine], for which, in data set [1], the Lifetime is reported as 2.7 ns, the “QY (luminescence quantum yield)” value is reported as 0.10, the Stokes shift is given as 9508 cm^–1 and the λabs is on record as 362 nm. For the same molecule, in data set [1], the λem was 552 nm.
In the case of `Oc1nn2ccccc2c1/C=C/c1cc(F)c(-c2ccccc2)c(F)c1F` [Compound 11b], in data set [1], the Lifetime is less than 1 ns, the “QY (luminescence quantum yield)” value is reported as 0.08, the Stokes shift was 3531 cm^–1 and the λabs turned out to be 450 nm. Also, in data set [1], the λem is 542 nm and 535 nm.
`Oc1nn2ccccc2c1-c1ccc2cc(-c3ccccc3)ccc2n1` [Compound 12, 3-(6-Phenylquinolin-2-yl)pyrazolo[1,5-a]pyridin-2-ol] had an IC50 against hDHODH enzyme GST-tagged of 16 µM. Moreover, in data set [1], the Lifetime is recorded as 2.3 ns, the “QY (luminescence quantum yield)” value is given as less than 0.01, the Stokes shift came out at 2385 cm^–1 and the λabs is 390 nm. For the same molecule, the λem in data set [1] stood at 430 nm.

Usually IC50 stands for the midpoint of a concentration-inhibition curve.
